Measured values: patent US11767303B2, “Compounds and methods for inhibiting viral replication and methods of treating and preventing flaviviral infections” (priority 2020, dated 2023)

Key:
[1] = tested on: ZIKV; experiment: qRT-PCR of viral RNA from ZIKV-infected A549 cells; assay type: cell-based, Zika virus
Method: Quantitative qRT-PCR. Quantitative qRT-PCR was performed as described previously. Li et al., “Existing Drugs as Broad-Spectrum and Potent Inhibitors for Zika Virus by Targeting NS2B-NS3 Interaction,” Cell Res. 27:1046-1064 (2017); Li et al., “Erythrosin B is a Potent and Broad-Spectrum Orthosteric Inhibitor of the Flavivirus NS2B-NS3 Protease,” Antiviral Res. 150:217-225 (2018), which are hereby incorporated in their entirety. ZIKV primers […] (SEQ ID NO: 12) and […] (SEQ ID NO: 13) with ZIKV probe Cy5-[…]/TAO/[…]-IAbRQSp (SEQ ID NO: 14) were used. The 2-ΔΔCT (“delta-delta Ct”) method was used to quantify samples. All experiments were performed in triplicates.

[2] = tested on: ZIKV; experiment: Immunofluorescence assay of viral protein production in A549 cells; assay type: cell-based, Zika virus; conditions: IFA with anti-E 4G2
Method: Immunofluorescence Assay. The immunofluorescence assay was performed using ZIKV-infected cells treated with DMSO or JMX0207, as described previously. Li et al., “Existing Drugs as Broad-Spectrum and Potent Inhibitors for Zika Virus by Targeting NS2B-NS3 Interaction,” Cell Res. 27:1046-1064 (2017); Li et al., “Erythrosin B is a Potent and Broad-Spectrum Orthosteric Inhibitor of the Flavivirus NS2B-NS3 Protease,” Antiviral Res. 150:217-225 (2018), which are hereby incorporated in their entirety. A mouse monoclonal pan anti-E antibody 4G2 (ATCC) and a DyLight® 488 goat anti-mouse IgG (ImmunoReagents, Inc.) were used to monitor viral E protein expression, as described previously. Li et al., “Existing Drugs as Broad-Spectrum and Potent Inhibitors for Zika Virus by Targeting NS2B-NS3 Interaction,” Cell Res. 27:1046-1064 (2017); Li et al., “Erythrosin B is a Potent and Broad-Spectrum Orthosteric Inhibitor of the Flavivirus NS2B-NS3 Protease,” Antiviral Res. 150:217-225 (2018), which are hereby incorporated in their entirety.

[3] = tested on: ZIKV; experiment: ZIKV inhibition in human neural progenitor cells (IFA, qRT-PCR); assay type: cell-based, Zika virus; conditions: HNPC
Description: Viral Titer Reduction Assay. A viral titer reduction assay was used to determine the compounds' effect on DENV2 and ZIKV strains, as described previously. Li et al., “Existing Drugs as Broad-Spectrum and Potent Inhibitors for Zika Virus by Targeting NS2B-NS3 Interaction,” Cell Res. 27:1046-1064 (2017) and Li et al., “Erythrosin B is a Potent and Broad-Spectrum Orthosteric Inhibitor of the Flavivirus NS2B-NS3 Protease,” Antiviral Res. 150:217-225 (2018), which are hereby incorporated by reference in their entirety. Human A549 lung carcinoma cells and human primary neural progenitor cells were used, as described previously. Li et al., “Erythrosin B is a Potent and Broad-Spectrum Orthosteric Inhibitor of the Flavivirus NS2B-NS3 Protease,” Antiviral Res. 150:217-225 (2018); Brecher et al., “A Conformational Switch High-Throughput Screening Assay and Allosteric Inhibition of the Flavivirus NS2B-NS3 Protease,” PLoS Pathog. 13:e1006411 (2017), which are hereby incorporated by reference in their entirety. All experiments were performed in triplicates.
Immunofluorescence Assay. The immunofluorescence assay was performed using ZIKV-infected cells treated with DMSO or JMX0207, as described previously. […]
Quantitative qRT-PCR. Quantitative qRT-PCR was performed as described previously. […] The 2-ΔΔCT (“delta-delta Ct”) method was used to quantify samples. […]

[4] = tested on: ZIKV PRVABC59; experiment: ZIKV viremia mouse model (A129 mice); assay type: in vivo; conditions: 20 mg/kg/day oral gavage, day 3 post-infection, vs vehicle
Method: In vivo protection efficacy. All animal studies involving infectious ZIKV were conducted at an Animal Biosafety Level 2 (ABSL-2) facility at the Wadsworth Center with Institutional Biosafety and Animal Welfare Committee approval.
A group of four-week-old A129 mice were infected by subcutaneous injection with 1.7×10^5 PFU of the PRVABC59 strain. […] Mice were observed daily for signs of illness and mortality. Viremia on day 3 post-infection (pi) was determined by plaque forming assay, and statistical analysis was performed using the unpaired, two-tailed t-test (Prism).
Finally, the in vivo antiviral efficacy was evaluated using a viremia mouse model, as described previously. Zhang et al., “Characterization of the Contemporary Zika Virus in Immunocompetent Mice,” Hum. Vaccines Immunother. 12:3107-3109 (2016) and Larocca et al., “Vaccine Protection Against Zika Virus From Brazil,” Nature 536:474-478 (2016), both of which are hereby incorporated by reference in their entirety.

O=C(Nc1ccc([N+](=O)[O-])cc1Cl)c1cccc([N+](=O)[O-])c1O [JMX0207, N-(2-Chloro-4-nitrophenyl)-2-hydroxy-3-nitrobenzamide]
ZIKV RNA copy number [1]: significantly reduced the ZIKV RNA copy number in a dose-dependent manner
ZIKV antigen production [2]: greatly reduced ZIKV antigen production in A549 cells in a dose-dependent manner
ZIKV protein expression and RNA synthesis [3]: effectively inhibited ZIKV protein expression and RNA synthesis in HNPC in dose-dependent manner
ZIKV-induced viremia [4]: significant reduction in ZIKV-induced viremia
